Converted amounts (≈) assume the structure as drawn. Read-outs that look alike come from different tables or passages of the source. Where only a bound is given, the exact number is not on record here.

Series [1] concerns L. monocytogenes strain EGD. The experiment in a line: microbe, parasite or virus in culture. In kind it is cell-based. Particulars: Listeria monocytogenes.
The test system of series [2] is L. pneumophila strain ATCC 33153. The experiment in a line: microbe, parasite or virus in culture. The following applies: Legionella pneumophila. It counts as cell-based.
Series [3] relates to B. anthracis. The experiment in a line: microbe, parasite or virus in culture. In kind it is cell-based.
For the next series, the system named is Y. pestis. Description: microbe, parasite or virus in culture. In kind it is cell-based.
The subject of the next series is F. tularensis. Description: microbe, parasite or virus in culture. It counts as cell-based.
For the next series, the system named is B. mallei. Description: microbe, parasite or virus in culture. In kind it is cell-based.
Another series concerns B. pseudomallei. The experiment in a line: microbe, parasite or virus in culture. In kind it is cell-based.
A short description of series [4]: in vivo. Particulars: rat.
Series [5] is described as follows: in vivo. The following applies: monkey.
Series [6] can be described thus: in vivo. Particulars: rodents and non human primates.
A further series is described as follows: clinical. Particulars: in vivo.
The conditions of series [7]: in vivo.
In series [8] the test system is B. anthracis. The following applies: approved or proposed for post-exposure anthrax indications; cited from earlier work.
The mark [9] stands for this setting: read-out: MIC, L. monocytogenes.
[10] abbreviates: ATCC33153, pH 6.5, read-out: MIC, L. pneumophila, pH-adjusted broth.
[11] abbreviates: ATCC33153, pH 7.4, read-out: MIC, L. pneumophila, pH-adjusted broth.
Where [12] appears, read: ATCC33153, read-out: MIC, L. pneumophila.

On to `CC[C@H]1OC(=O)[C@H](C)[C@@H](O[C@H]2C[C@@](C)(OC)[C@@H](O)[C@H](C)O2)[C@H](C)[C@@H](O[C@@H]2O[C@H](C)C[C@H](N(C)C)[C@H]2O)[C@](C)(O)C[C@@H](C)CN(C)[C@H](C)[C@@H](O)[C@]1(C)O` [AZI, Azithromycin], for which the MIC in series [1] is 1 µg/mL (≈ 1.34 µM); in series [1] (setting [9]), 1 µg/mL (≈ 1.34 µM); in series [2] (ATCC33153), 0.016 µg/mL (≈ 0.0214 µM); in series [2] (setting [10]), 0.25 µg/mL (≈ 0.334 µM); in series [2] (setting [11]), approximately 0.01 µg/mL (≈ 0.0134 µM); in series [2] (setting [12]), 0.016 µg/mL (≈ 0.0214 µM).
Regarding `CC[C@H]1OC(=O)[C@@](C)(F)C(=O)[C@H](C)[C@@H](OC2OC(C)CC(N(C)C)C2O)[C@@](C)(OC)C[C@@H](C)C(=O)[C@H](C)[C@H]2N(CCCCn3cc(-c4cccc(N)c4)nn3)C(=O)O[C@]12C` (some centres unmarked) [CEM-101, 11-N-4-(3-aminophenyl)-[1,2,3]triazol-1-yl]-butyl}-5-desosaminyl-3-oxo-2-fluoro-erythronolide A,-11,12-cyclic carbamate], the “MIC Range” value against B. anthracis [3] (B. anthracis, 30 strains) was less than 0.008 to 0.015 µg/mL; against Y. pestis (Y. pestis, 30 strains) it was 0.25 to 2 µg/mL; in the series with F. tularensis (F. tularensis, 30 strains), less than 0.08 to 4 µg/mL; against B. mallei (B. mallei, 30 strains) it was 0.25 to 2 µg/mL; in the series with B. pseudomallei (B. pseudomallei, 30 strains) it was 16 µg/mL (≈ 18.9 µM). The MIC50 was less than 0.008 µg/mL in the series with B. anthracis [3] (Bacillus anthracis); 1 µg/mL (≈ 1.18 µM) against Y. pestis (Yersinia pestis); 0.03 µg/mL (≈ 0.0355 µM) in the series with F. tularensis (Francisella tularensis); 1 µg/mL (≈ 1.18 µM) against B. mallei (Burkholderia mallei); 16 µg/mL (≈ 18.9 µM) with B. pseudomallei (Burkholderia pseudomallei). Moreover, the MIC90 with B. anthracis [3] (Bacillus anthracis) is less than 0.008 µg/mL; with Y. pestis (Yersinia pestis), 2 µg/mL (≈ 2.37 µM); in the series on F. tularensis (Francisella tularensis), 2 µg/mL (≈ 2.37 µM); against B. mallei (Burkholderia mallei), 1 µg/mL (≈ 1.18 µM); in the series with B. pseudomallei (Burkholderia pseudomallei), 16 µg/mL (≈ 18.9 µM). Besides, the MIC in [1] was 0.004 µg/mL (≈ 0.00473 µM); in [1] (pH 7.4, read-out: MIC, L. monocytogenes (EDG), pH-adjusted broth), 0.0039 µg/mL (≈ 0.00462 µM); in series [1] (setting [9]) it was 0.004 µg/mL (≈ 0.00473 µM); in [2] (ATCC33153) it was 0.004 µg/mL (≈ 0.00473 µM); in series [2] (setting [10]), 0.01 µg/mL (≈ 0.0118 µM); in series [2] (setting [11]), 0.005 µg/mL (≈ 0.00592 µM). Further, the MIC in series [2] (setting [12]) is 0.004 µg/mL (≈ 0.00473 µM). Besides, the Kp was 5 in the series “in vivo [4]”, 54 in the series “in vivo [5]” and 17 to 100 in “in vivo [6]”. The molecule further came in with an AUC in “clinical” of 40 to 28600 ng·h/mL. For the same molecule, in the series “clinical”, the Cmax is 22 to 1960 ng/mL. In addition, in “clinical”, the Tmax was 1.5 to 6 h. Also, in the series “clinical”, the half-life was 2.2 to 7.9 h.
As for `CC[C@H]1OC(=O)[C@H](C)[C@@H](O[C@H]2C[C@@](C)(OC)[C@@H](O)[C@H](C)O2)[C@H](C)[C@@H](O[C@@H]2O[C@H](C)C[C@H](N(C)C)[C@H]2O)[C@](C)(OC)C[C@@H](C)C(=O)[C@H](C)[C@@H](O)[C@]1(C)O` [CLR, Clarithromycin], the MIC in series [2] (ATCC33153) is 0.007 µg/mL (≈ 0.00936 µM). Further, in [7], the “bioload when the time after the last dose was extended” value is reported as “bioload increases”.
In the same order, the values of `CC[C@H]1OC(=O)[C@H](C)C(=O)[C@H](C)[C@@H](O[C@@H]2O[C@H](C)C[C@H](N(C)C)[C@H]2O)[C@](C)(OC)C[C@@H](C)C(=O)[C@H](C)[C@H]2N(CCCCn3cnc(-c4cccnc4)c3)C(=O)O[C@]12C` [TEL, Telithromycin] are 0.007 µg/mL (≈ 0.00862 µM) and “bioload increases”.
As for `CC[C@H]1OC(=O)[C@H](C)C(=O)[C@H](C)[C@@H](O[C@@H]2O[C@H](C)C[C@H](N(C)C)[C@H]2O)[C@](C)(OC/C=C/c2cnc3ccccc3c2)C[C@@H](C)C(=O)[C@H](C)[C@H]2NC(=O)O[C@@]21C` [cethromycin], the “MIC90 against B. anthracis, comparator antibiotics” value in the series with B. anthracis [8] is 0.063 µg/mL (≈ 0.0823 µM).
Regarding `O=C(O)c1cn(C2CC2)c2cc(N3CCNCC3)c(F)cc2c1=O` [ciprofloxacin], the “MIC90 against B. anthracis, comparator antibiotics” value in the series with B. anthracis [8] is 0.031 µg/mL (≈ 0.0936 µM).

The record behind these values is patent publication US9072759B2 (priority 2008, dated 2015).
